Test results: patent US20210253718A1, “FRIZZLED5 PROTEIN-BINDING AGENTS” (Modmab Therapeutics Corporation, priority 2016, published 2021)

What was measured:
[1] = target: T1, FZD3 CRD (Homo sapiens, UniProt Q9NPG1); assay: Flow cytometry of anti-FZD5 Fab binding to CHO cells overexpressing Frizzled CRD
T1 construct: CRD of FZD1, FZD2, FZD3, FZD4, FZD5, FZD6, FZD7, FZD8, FZD9 or FZD10; GPI anchor signal (C); expressed in transfected cells; host or cells: CHO cells, lentiviral pLenti-puro
T1 sequence (Q9NPG1 23-136 limits assumed): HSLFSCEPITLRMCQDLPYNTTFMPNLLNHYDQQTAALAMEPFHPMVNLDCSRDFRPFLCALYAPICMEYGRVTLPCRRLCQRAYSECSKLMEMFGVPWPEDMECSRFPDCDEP
Experimental: (§1) Plasmids: pLCKO lentiviral vector used for knockout (TKO) library construction and expression of individual gRNAs was constructed as described previously (Hart et al., 2015). Briefly, single guide RNA (sgRNA) scaffold was amplified from px330 (Addgene 42230) and cloned into pLKO.TRC005 lentiviral vector (Broad Institute, Cambridge, Mass.) using AgeI/EcoRI restriction sites. BfuAI sites were added at the 5′ end of the sgRNA scaffold for cloning the TKO library or individual gRNA target sequences. Lenti Cas9-2A-BsdR vector used to generate Cas9 stable expression cell lines was constructed as described previously (Hart et al., 2015). Briefly, lentiCRISPR pXPR_001 (Addgene 49535) was modified through removal of the sgRNA scaffold region through NdeI/EcoRI digest and blunt ends generation using Large Klenow Fragment (NEB). 2A-puro was replaced with 2A-BsdR by PCR using the NheI/MluI sites. Each of the 10 human Frizzled cysteine rich domains (CRDs) were cloned into the lentiviral expression plasmid pLenti-puro in the following cassette: FZD_CRD-MYC-GPI.
Flow cytometry: Primary staining of cells was performed by treatment with 200 nM Frizzled profiler Fab. Alexa Fluor 488 AffiniPure F(ab′)2 was used as the secondary antibody (Jackson ImmunoResearch #109-546-097). c-Myc (9E10) IgG1 (primary antibody, Santa Cruz, lot #D0306) and Alexa Fluor 488 IgG (secondary antibody, Life technologies, lot #1458649) were used as controls. Dead cells were excluded by staining with Fixable Viability Dye eFluor 660 (eBioscience, catalogue number 65-0864). All reagents were used as per manufacturer's instructions. Flow cytometry was performed on a BD FACSCanto II flow cytometer (BD Biosciences), and data were analyzed with FlowJo software (FlowJo, LLC).
(§2) To confirm that the FZD5-WNT7B circuit is not driven simply by expression and rule out the possibility of a disconnect between RNA and protein levels for the Wnt receptors in HPAF-II cells, a panel of recombinant Fabs were generated, alternatively referred to herein as ‘Frizzled profiler’, that can detect and discriminate all but one of the ten Frizzled receptors. […] To characterize the binding specificity of these Fabs on cells, a panel of 10 CHO cell lines was generated, each expressing the CRD domain of a different myc-tagged Frizzled family member anchored at the plasma membrane through a GPI anchor (CHO-myc-FZDGPI). Despite the high sequence identity between Frizzled family members (FIG. 7A, FIG. 7B), selective Fabs were identified for FZD4, FZD5, FZD6 and FZD10 as assessed by immunofluorescence and flow cytometry (FIG. 7D and FIG. 8). […] The FZD8 CRD is most homologous to that of FZD5 (FIG. 7B). These Fabs can be used to discriminate expression of FZD1, FZD2, FZD4, FZD5, FZD6, FZD7, FZD8, FZD9 and FZD10 (FIG. 7D and FIG. 8). The ‘Frizzled profiler’ therefore consists of 10 different Fabs that can be used to discriminate expression of 9 different Frizzled family members. The Frizzled profiler was then used to confirm that HPAF-II cells express FZD1, FZD5, FZD6 and possibly FZD8 (FIG. 7E).
(§3) The binding of anti-FZD5 Fabs to cell surface-expressed Frizzled protein was further determined for each member of the Frizzled family via flow cytometry and immunofluorescence analysis of a panel of 10 CHO cell lines, each ectopically over-expressing the extracellular cysteine-rich domain (CRD) of a different Frizzled protein family member.

[2] = target: T2, FZD10 CRD (Homo sapiens, UniProt Q9ULW2); assay: Immunofluorescence of anti-FZD5 Fab binding to CHO cells overexpressing Frizzled CRD; set-up: key: −: no binding; +: very weak binder; ++: weak binder; +++: good binder; ++++: very good binder
T2 construct: 30-156; GPI anchor signal (C); expressed in transfected cells; host or cells: CHO cells, lentiviral pLenti-puro
T2 sequence (Q9ULW2 30-156): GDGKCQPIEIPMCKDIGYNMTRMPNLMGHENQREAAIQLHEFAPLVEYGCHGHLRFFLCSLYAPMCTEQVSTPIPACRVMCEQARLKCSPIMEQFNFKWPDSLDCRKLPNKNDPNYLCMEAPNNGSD
Experimental: as §1, §2, §3

[3] = target: T1, FZD3 CRD; assay: as above; set-up: key: −: no binding; +: very weak binder; ++: weak binder; +++: good binder; ++++: very good binder
Experimental: as §1, §2, §3

[4] = target: T3, FZD8 CRD (Homo sapiens, UniProt Q9H461); assay: as above; set-up: key: −: no binding; +: very weak binder; ++: weak binder; +++: good binder; ++++: very good binder
T3 construct: K31-D155; GPI anchor signal (C); expressed in transfected cells; host or cells: CHO cells, lentiviral pLenti-puro
T3 sequence (Q9H461 31-155): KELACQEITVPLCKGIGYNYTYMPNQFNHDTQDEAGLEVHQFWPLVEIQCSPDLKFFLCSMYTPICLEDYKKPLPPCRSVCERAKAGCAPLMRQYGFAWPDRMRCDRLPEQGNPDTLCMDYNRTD
Experimental: as §1, §2, §3

[5] = system: ASPC-1 cells; assay: Effect of anti-FZD5 Fabs on proliferation of pancreatic cancer cell lines (percent growth inhibition); format: cell-based, human; details: Fab 10 μg/ml
Experimental: (§4) The effect of presently disclosed anti-FZD5 Fabs on proliferation of RNF43 loss-of-function mutant pancreatic cancer cell lines HPAFII, PATU8988S and ASPC-1; and on pancreatic cancer cell line RWP1, was tested at […] and 10 μg/ml.

[6] = system: HPAFII cells; assay: as above; format: cell-based, human
Experimental: as §4

[7] = system: PATU8988S cells; assay: as above; format: cell-based, human; details: Fab 10 μg/ml
Experimental: as §4

[8] = system: RWP1 cells; assay: as above; format: cell-based, human; details: Fab 10 μg/ml
Experimental: as §4

[9] = system: CHO cells not expressing Frizzled CRD; assay: Flow cytometry of anti-FZD5 Fab binding to CHO cells not expressing Frizzled CRD (background)
Text: as §3

## Fab-2931: anti-FZD5 Fab with antibody variable region Fv-2931; CDR SEQ ID NOs: 35, 36, 70, 102, 146, 176 (CDR 1 QSVSSA; CDR 2 SAS; CDR 3 QQSSYSLIT; CDR 4 GFNLSYSS; CDR 5 ISPYSGST; CDR 6 ARGSYWYVGGGWWVSGHGGMDY)
[1]
  Median fluorescence, Frizzled CRD overexpressed on CHO cells: FZD3: 3.49
[2]
  Immunofluorescence binding, Frizzled CRD overexpressed on CHO cells: FZD10: −
[3]
  Immunofluorescence binding, Frizzled CRD overexpressed on CHO cells: FZD3: −
[4]
  Immunofluorescence binding, Frizzled CRD overexpressed on CHO cells: FZD8: −
[5]
  percent growth inhibition, ASPC-1 10 μg/ml: 39.20%
[6]; Fab 2 μg/ml
  percent growth inhibition, HPAFII 2 μg/ml: −19.38%
[6]; Fab 10 μg/ml
  percent growth inhibition, HPAFII 10 μg/ml: 11.37%
[7]
  percent growth inhibition, PATU8988s 10 μg/ml: −17.27%
[8]
  percent growth inhibition, RWP1 10 μg/ml: 18.70%
[9]
  Median fluorescence, Frizzled CRD overexpressed on CHO cells: None: 3.11
